Source: patent US8669265B2, “Hydrated form of erlotinib free base and a process for preparation of erlotinib hydrochloride polymorph form a substantially free of polymorph form B” (Hetero Research Foundation, priority 2007, dated 2014)

Legend:
[1] = Particle size distribution by laser diffraction (Sympatec Helos, 1 bar dispersive pressure); type: physicochemical; conditions: isolated crystalline product of the example; hydrochloride
Source text: The term “Particle Size Distribution (P.S.D.)” means the cumulative volume size distribution of equivalent spherical diameters as determined by laser diffraction at 1 bar dispersive pressure in a Sympatec Helos equipment. “Mean particle size distribution, i.e., d(0.5)” correspondingly, means the median of said particle size distribution.

[2] = Hygroscopicity and storage stability of the crystalline form (stated in words); type: physicochemical

| Compound | 90 volume-% of the particles (D90) [1] | Storage stability [2] | Mean particle size (D50) [1] | Hygroscopicity [2] |
| --- | --- | --- | --- | --- |
| C#Cc1cccc(Nc2ncnc3cc(OCCOC)c(OCCOC)cc23)c1.Cl [Reference Example 2, N-(3-ethynylphenyl)-6,7-bis(2-methoxyethoxy)-4-quinazolinamine hydrochloride] | 7.74 μm | – | – | – |
| C#Cc1cccc(Nc2ncnc3cc(OCCOC)c(OCCOC)cc23)c1.Cl [N-(3-ethynylphenyl)-6,7-bis(2-methoxyethoxy)-4-quinazolinamine hydrochloride] | – | stable over the time | – | – |
| C#Cc1cccc(Nc2ncnc3cc(OCCOC)c(OCCOC)cc23)c1.Cl [Reference Example 5, N-(3-ethynylphenyl)-6,7-bis(2-methoxyethoxy)-4-quinazolinamine hydrochloride] | 4.61 μm | – | 3.50 μm | – |

Second part, the compound after the results:

| 90 volume-% of the particles (D90) [1] | Storage stability [2] | Mean particle size (D50) [1] | Hygroscopicity [2] | Compound |
| --- | --- | --- | --- | --- |
| 18.96 μm | – | 5.48 μm | – | C#Cc1cccc(Nc2ncnc3cc(OCCOC)c(OCCOC)cc23)c1.Cl [Example 6, N-(3-ethynylphenyl)-6,7-bis(2-methoxyethoxy)-4-quinazolinamine hydrochloride] |
| 4.53 μm | – | 3.42 μm | – | C#Cc1cccc(Nc2ncnc3cc(OCCOC)c(OCCOC)cc23)c1.Cl [Reference Example 1, N-(3-ethynylphenyl)-6,7-bis(2-methoxyethoxy)-4-quinazolinamine hydrochloride] |
| – | storage stable over the time | – | non-hygroscopic | C#Cc1cccc(Nc2ncnc3cc(OCCOC)c(OCCOC)cc23)c1 [crystalline erlotinib hydrate, erlotinib hydrate] |
